Laboratory results as given in PMC7395068, “The evolution of strategies to minimise the risk of human drug-induced liver injury (DILI) in drug discovery and development” (Archives of Toxicology, 2020).
Read-outs that look alike come from different tables or passages of the source.

How the values were obtained:
hLiMTs = assay: Combined HCI (HCS) and cellular ATP 3D assay in hLiMTs; details: for AC50 / minimal effective concentration: Homo sapiens; for DILI prediction hLiMTs (HCS-MEC): Microtissue model structural based (HCI), combined HCS and ATP, MEC < 25 × Cmax.tot cut-off; for hLiMTs <25x Avg Cmax ATP / hLiMTs <25x Avg Cmax HCS / hLiMTs <25x Avg Cmax All: cut-off <25x Avg Cmax; for hLiMTs <25x Avg Cmax All: all endpoints (ATP and HCS); for hLiMTs Cmax max All: Cmax max used; for hLiMTs Cmax min All: Cmax min used
[1] = Plasma free fraction (fu) and unbound Cmax (Cmax,u); format: in vitro ADME, human; details: unbound plasma Cmax
[2] = plasma free fraction; cited from earlier work
[3] = test system: HepG2 C3A spheroid, BSEP, Glu/Gal in HepG2 cells, bioactivation; details: cited from earlier work; for Bayesian Machine Learning DILI prediction, Williams (2019): Bayesian modeling, ref Williams et al. 2019; for Bayesian Machine Learning: In vitro Assay, ref Williams 2019
[4] = test system: THLE-Null and THLE-3A4 cells; details: In vitro Assay; ref Gustafsson 2014; cited from earlier work
PHH spheroids = details: In vitro Assay; ref Vorrink 2018; cited from earlier work
HepaRG spheroids = assay: Combined HCI (HCS) and cellular ATP 3D assay in HepaRG spheroids; details: for HepaRG <25x Avg Cmax ATP / HepaRG <25x Avg Cmax HCS / HepaRG <25x Avg Cmax All: cut-off <25x Avg Cmax; for HepaRG <25x Avg Cmax All: all endpoints (ATP and HCS); for HepaRG Cmax max All: Cmax max used; for HepaRG Cmax min All: Cmax min used; for AC50 / minimal effective concentration: Homo sapiens; for DILI prediction HepaRG spheroids (HCS-MEC): Microtissue model structural based (HCI), combined HCS and ATP, MEC < 25 × Cmax.tot cut-off
rBsep = details: In vitro Assay; ref Dawson 2012; cited from earlier work
[5] = read-out: Human plasma Cmax; total plasma Cmax.tot, median of 9 literature references; cited from earlier work
[6] = test system: THLE or HepG2 cells, isolated mitochondria, BSEP; details: cited from earlier work
[7] = test system: isolated mouse liver mitochondria; details: In vitro Assay; ref Porceddu 2012; cited from earlier work
human hepatocytes = details: cited from earlier work
[8] = test system: HepG2 cells, primary human hepatocytes; details: In vitro Assay; ref Garside 2014; cited from earlier work
[9] = HepaRG, read-out: ATP endpoint AC50
[10] = HepaRG, read-out: ATP endpoint MEC
[11] = HepaRG, read-out: HCS endpoint AC50
[12] = HepaRG, read-out: HCS endpoint MEC
[13] = Modeled in vitro assays (cytotoxicity, mitochondrial dysfunction, BSEP), ref Aleo et al. 2019

## CN1CCN(C2=Nc3cc(Cl)ccc3Nc3ccccc32)CC1 [clozapine]
hLiMTs; read-out: ATP endpoint AC50
  AC50: 14 µM
hLiMTs; read-out: ATP endpoint MEC
  minimal effective concentration: 10.5 µM
hLiMTs; read-out: HCS endpoint AC50
  AC50: 15.2 µM
hLiMTs; read-out: HCS endpoint MEC
  minimal effective concentration: 5.61 µM
hLiMTs
  DILI prediction hLiMTs (HCS-MEC): +VE (MEC < 25 × Cmax.tot cut-off)
hLiMTs; hLiMTs, ATP endpoint
  hLiMTs <25x Avg Cmax ATP: +ve
hLiMTs; hLiMTs, ATP endpoint, cut-off <100x Avg Cmaxu
  hLiMTs <100x Avg Cmaxu ATP: -ve
hLiMTs; hLiMTs, HCS endpoints
  hLiMTs <25x Avg Cmax HCS: +ve
hLiMTs; hLiMTs, HCS endpoints, cut-off <100x Avg Cmaxu
  hLiMTs <100x Avg Cmaxu HCS: +ve (<100x Avg Cmaxu)
hLiMTs; hLiMTs
  hLiMTs <25x Avg Cmax All: +ve
hLiMTs; hLiMTs, all endpoints
  hLiMTs Cmax max All: +ve
  hLiMTs Cmax min All: +ve
hLiMTs; hLiMTs, all endpoints, cut-off <10 uM
  hLiMTs <10 uM All: +ve (<10 uM)
hLiMTs; hLiMTs, all endpoints, cut-off <100x Avg Cmaxu
  hLiMTs <100x Avg Cmaxu All: +ve (<100x Avg Cmaxu)
[1]
  Human plasma Cmax,u: 73 nM
[2]
  fu: 0.030
[3]
  Bayesian Machine Learning DILI prediction, Williams (2019): +VE
  Bayesian Machine Learning: +VE
[4]
  THLE-Null: -VE
PHH spheroids
  hLiMTs ATP <20 x Cmax: +VE (IC20 < 20 × Cmax.tot cut-off)
HepaRG spheroids; HepaRG, ATP endpoint
  HepaRG <25x Avg Cmax ATP: +ve
HepaRG spheroids; HepaRG, ATP endpoint, cut-off <100x Avg Cmaxu
  HepaRG <100x Avg Cmaxu ATP: -ve
HepaRG spheroids; HepaRG, HCS endpoints
  HepaRG <25x Avg Cmax HCS: +ve
HepaRG spheroids; HepaRG, HCS endpoints, cut-off <100x Avg Cmaxu
  HepaRG <100x Avg Cmaxu HCS: +ve (<100x Avg Cmaxu)
HepaRG spheroids; HepaRG
  HepaRG <25x Avg Cmax All: +ve
HepaRG spheroids; HepaRG, all endpoints
  HepaRG Cmax max All: +ve
  HepaRG Cmax min All: +ve
HepaRG spheroids; HepaRG, all endpoints, cut-off <10 uM
  HepaRG <10 uM All: +ve (<10 uM)
HepaRG spheroids; HepaRG, all endpoints, cut-off <100x Avg Cmaxu
  HepaRG <100x Avg Cmaxu All: +ve (<100x Avg Cmaxu)
HepaRG spheroids; [9]
  AC50: 16.6 µM
HepaRG spheroids; [10]
  minimal effective concentration: 13.1 µM
HepaRG spheroids; [11]
  AC50: 13.2 µM
HepaRG spheroids; [12]
  minimal effective concentration: 4.66 µM
HepaRG spheroids
  DILI prediction HepaRG spheroids (HCS-MEC): +VE (MEC < 25 × Cmax.tot cut-off)
rBsep
  Inhibition of rBsep cutoff<1& cmax u>.2: -VE
  Inhibition of rBsep cutoff<3: +VE
[5]
  Cmax: 2450 nM
[6]; In vitro Assay, ref Aleo 2019
  Partition Hybrid HRM Score: +VE
  Ro2 Hybrid HRM Score: +VE
[6]; [13]
  Partition Hybrid HRM Score ≥4, Aleo (2019): +VE (Partition Hybrid HRM Score ≥4)
  Partition Hybrid HRM Score ≥8, Aleo (2019): -VE
  Rule of Two hybrid HRM Score ≥3, Aleo (2019): +VE (Rule of Two hybrid HRM Score ≥3)
  Rule of Two hybrid HRM Score ≥8, Aleo (2019): -VE

## COc1ccc2c(c1)c(CC(=O)O)c(C)n2C(=O)c1ccc(Cl)cc1 [indomethacin]
hLiMTs; read-out: ATP endpoint AC50
  AC50: 9.29 µM
hLiMTs; read-out: ATP endpoint MEC
  minimal effective concentration: 4.54 µM
hLiMTs; read-out: HCS endpoint AC50
  AC50: 672 µM
hLiMTs; read-out: HCS endpoint MEC
  minimal effective concentration: 95.2 µM
hLiMTs
  DILI prediction hLiMTs (HCS-MEC): +VE (MEC < 25 × Cmax.tot cut-off)
hLiMTs; hLiMTs, ATP endpoint
  hLiMTs <25x Avg Cmax ATP: +ve
hLiMTs; hLiMTs, HCS endpoints
  hLiMTs <25x Avg Cmax HCS: +ve
hLiMTs; hLiMTs
  hLiMTs <25x Avg Cmax All: +ve
hLiMTs; hLiMTs, all endpoints
  hLiMTs Cmax max All: +ve
  hLiMTs Cmax min All: +ve
[1]
  Human plasma Cmax,u: 84 nM
[2]
  fu: 0.010
[3]
  Bayesian Machine Learning DILI prediction, Williams (2019): +VE
  Bayesian Machine Learning: +VE
[7]
  in vitro data EC2<=1x Cmax: +VE
[4]
  THLE-Null: -VE
PHH spheroids
  hLiMTs ATP <20 x Cmax: +VE (IC20 < 20 × Cmax.tot cut-off)
HepaRG spheroids; HepaRG, ATP endpoint
  HepaRG <25x Avg Cmax ATP: +ve
HepaRG spheroids; HepaRG, HCS endpoints
  HepaRG <25x Avg Cmax HCS: +ve
HepaRG spheroids; HepaRG
  HepaRG <25x Avg Cmax All: +ve
HepaRG spheroids; HepaRG, all endpoints
  HepaRG Cmax max All: +ve
  HepaRG Cmax min All: +ve
HepaRG spheroids; [9]
  AC50: 94.2 µM
HepaRG spheroids; [10]
  minimal effective concentration: 79.2 µM
HepaRG spheroids; [11]
  AC50: 215 µM
HepaRG spheroids; [12]
  minimal effective concentration: 23.8 µM
HepaRG spheroids
  DILI prediction HepaRG spheroids (HCS-MEC): +VE (MEC < 25 × Cmax.tot cut-off)
[5]
  Cmax: 8380 nM
Human hepatocytes; In vitro Assay, ref Xu 2008
  Structural based (HCI): -VE
Human hepatocytes; Structural based (HCI), human hepatocytes, ref Xu et al. 2008
  DILI in vitro assay prediction, Xu (2008): -VE
[8]
  Cluster 1-6 +VE Assay: -VE
